Experiments:
Format in all cases: biochemical
LATS1 = target: T1, LATS1 (Homo sapiens, UniProt O95835); assay: RBC HotSpot kinase assay (33P-ATP, P81 filter-binding), LATS1; conditions: Table 28, biochemical kinase assay; read-out: LATS1 IC50
T1 sequence (O95835 1-1130): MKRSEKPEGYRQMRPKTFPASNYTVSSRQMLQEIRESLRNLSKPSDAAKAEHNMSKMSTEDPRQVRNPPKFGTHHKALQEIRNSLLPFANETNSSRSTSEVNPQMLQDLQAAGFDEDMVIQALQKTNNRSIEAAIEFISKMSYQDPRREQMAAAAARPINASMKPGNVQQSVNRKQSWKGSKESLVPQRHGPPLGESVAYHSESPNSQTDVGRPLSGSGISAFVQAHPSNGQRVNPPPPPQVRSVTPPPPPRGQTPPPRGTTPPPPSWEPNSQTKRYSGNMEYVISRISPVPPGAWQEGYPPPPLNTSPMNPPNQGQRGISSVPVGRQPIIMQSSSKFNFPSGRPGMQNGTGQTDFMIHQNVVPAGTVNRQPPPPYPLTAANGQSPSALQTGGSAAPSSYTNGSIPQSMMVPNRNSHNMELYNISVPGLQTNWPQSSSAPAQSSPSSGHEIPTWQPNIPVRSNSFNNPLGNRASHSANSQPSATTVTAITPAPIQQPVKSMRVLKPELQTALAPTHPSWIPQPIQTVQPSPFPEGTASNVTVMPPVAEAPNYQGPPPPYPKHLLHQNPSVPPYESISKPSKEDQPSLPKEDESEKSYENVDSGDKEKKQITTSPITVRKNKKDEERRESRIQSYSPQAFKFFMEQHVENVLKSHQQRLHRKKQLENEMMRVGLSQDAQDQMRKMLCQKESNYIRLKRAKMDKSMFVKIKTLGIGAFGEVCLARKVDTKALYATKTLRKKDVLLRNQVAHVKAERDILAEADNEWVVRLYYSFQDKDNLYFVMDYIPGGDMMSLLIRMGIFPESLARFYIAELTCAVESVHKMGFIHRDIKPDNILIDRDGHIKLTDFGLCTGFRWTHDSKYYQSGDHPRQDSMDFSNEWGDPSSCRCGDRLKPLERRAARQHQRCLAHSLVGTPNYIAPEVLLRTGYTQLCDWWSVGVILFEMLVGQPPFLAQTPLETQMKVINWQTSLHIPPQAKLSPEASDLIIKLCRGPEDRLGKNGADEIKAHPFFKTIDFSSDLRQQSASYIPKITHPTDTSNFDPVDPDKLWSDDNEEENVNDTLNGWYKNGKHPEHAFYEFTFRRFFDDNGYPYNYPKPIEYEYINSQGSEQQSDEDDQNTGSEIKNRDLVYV
Outline: (§1)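 Hepes pH 7.5/MgCl2/EGTA/Brij35/BSA/Na3VO4/DTT buffer, cofactors per kinase; cpd acoustically dispensed, 20 min preinc RT; start w/ 33P-ATP, 2 h RT; P81 filter readout; 10-pt singlet IC50.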

LATS2 = target: T2, LATS2 (Homo sapiens, UniProt Q9NRM7); assay: RBC HotSpot kinase assay (33P-ATP, P81 filter-binding), LATS2; conditions: Table 28, biochemical kinase assay; read-out: LATS2 IC50
T2 sequence (Q9NRM7 1-1088): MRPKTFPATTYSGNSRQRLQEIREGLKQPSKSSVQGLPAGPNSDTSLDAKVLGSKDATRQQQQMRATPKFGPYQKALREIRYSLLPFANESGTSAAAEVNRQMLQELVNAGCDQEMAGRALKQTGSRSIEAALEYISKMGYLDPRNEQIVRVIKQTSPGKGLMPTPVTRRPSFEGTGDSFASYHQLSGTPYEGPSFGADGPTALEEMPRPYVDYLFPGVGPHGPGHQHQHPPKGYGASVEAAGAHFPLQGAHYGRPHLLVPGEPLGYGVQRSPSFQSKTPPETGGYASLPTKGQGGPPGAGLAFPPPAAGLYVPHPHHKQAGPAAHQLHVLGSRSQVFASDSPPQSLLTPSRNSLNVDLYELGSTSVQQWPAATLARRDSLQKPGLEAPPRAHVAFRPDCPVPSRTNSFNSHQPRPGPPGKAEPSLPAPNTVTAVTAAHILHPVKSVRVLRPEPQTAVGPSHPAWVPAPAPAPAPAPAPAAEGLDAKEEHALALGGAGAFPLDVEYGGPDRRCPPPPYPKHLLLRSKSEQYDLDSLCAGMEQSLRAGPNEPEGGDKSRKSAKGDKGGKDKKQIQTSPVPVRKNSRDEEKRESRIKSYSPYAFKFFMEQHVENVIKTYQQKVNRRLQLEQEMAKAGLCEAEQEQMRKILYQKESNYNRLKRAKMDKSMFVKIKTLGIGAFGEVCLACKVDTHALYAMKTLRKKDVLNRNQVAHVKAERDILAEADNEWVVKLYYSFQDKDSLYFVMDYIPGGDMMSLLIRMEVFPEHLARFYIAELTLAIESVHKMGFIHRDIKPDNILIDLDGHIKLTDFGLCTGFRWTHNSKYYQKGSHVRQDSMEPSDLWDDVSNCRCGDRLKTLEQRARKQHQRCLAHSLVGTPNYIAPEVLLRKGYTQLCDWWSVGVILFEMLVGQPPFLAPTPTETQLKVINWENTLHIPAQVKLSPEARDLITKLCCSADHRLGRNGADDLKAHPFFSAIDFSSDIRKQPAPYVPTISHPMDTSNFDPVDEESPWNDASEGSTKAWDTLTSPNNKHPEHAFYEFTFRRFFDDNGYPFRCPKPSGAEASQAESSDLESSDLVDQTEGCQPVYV
Outline: as §1

AKT = AKT (Homo sapiens, UniProt P31749); assay: RBC HotSpot kinase assay (33P-ATP, P81 filter-binding), AKT; conditions: Table 28, biochemical kinase assay; read-out: AKT IC50
AKT, sequence (P31749 whole entry): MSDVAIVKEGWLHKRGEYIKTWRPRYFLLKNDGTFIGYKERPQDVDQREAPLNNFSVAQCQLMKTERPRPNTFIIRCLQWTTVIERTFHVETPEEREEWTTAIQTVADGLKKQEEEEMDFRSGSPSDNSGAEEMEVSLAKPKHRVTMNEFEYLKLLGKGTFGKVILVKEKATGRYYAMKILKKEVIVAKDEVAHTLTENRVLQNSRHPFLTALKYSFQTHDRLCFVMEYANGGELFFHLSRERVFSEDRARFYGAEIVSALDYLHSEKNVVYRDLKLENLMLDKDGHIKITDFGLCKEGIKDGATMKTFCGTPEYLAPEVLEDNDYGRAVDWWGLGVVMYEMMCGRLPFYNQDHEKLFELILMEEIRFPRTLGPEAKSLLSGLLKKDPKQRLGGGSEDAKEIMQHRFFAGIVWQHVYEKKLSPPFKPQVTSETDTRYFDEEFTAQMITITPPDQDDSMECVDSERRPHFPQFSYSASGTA
Outline: as §1

SMILES | IC50 (LATS1) [nM] | IC50 (LATS2) [nM] | IC50 (AKT) [nM]
CN1CCC(O)(c2ccc(-c3ccnc4[nH]cc(F)c34)cc2)CC1 [Compound 131, 4-(4-(3-fluoro-1H-pyrrolo[2,3-b]pyridin-4-yl)phenyl)-1-methylpiperidin-4-ol] | 28 | 25 | 1070
CN1CCC(O)(c2ccc(-c3ccnc4[nH]ccc34)cc2)CC1 [Compound 132, 4-(4-(1H-pyrrolo[2,3-b]pyridin-4-yl)phenyl)-1-methylpiperidin-4-ol] | 2.9 | 5.7 | 490
CN1[C@@H]2CC[C@H]1CC(O)(c1ccc(-c3ccnc4[nH]cc(F)c34)cc1)C2 (stereo partly drawn) [Compound 133, (1R,5S)-3-(4-(3-fluoro-1H-pyrrolo[2,3-b]pyridin-4-yl)phenyl)-8-methyl-8-azabicyclo[3.2.1]octan-3-ol] | 20.1 | 19.1 | 390
CN1CC2CC(C1)C2(O)c1ccc(-c2ccnc3[nH]cc(F)c23)cc1Cl (stereo not drawn) [Compound 134, 6-(2-chloro-4-(3-fluoro-1H-pyrrolo[2,3-b]pyridin-4-yl)phenyl)-3-methyl-3-azabicyclo[3.1.1]heptan-6-ol] | 43.5 | 116 | 788
Cc1nc(-c2ccnc3[nH]ccc23)ccc1C1(O)CCN(C)CC1 [Compound 135, 1-methyl-4-(2-methyl-6-(1H-pyrrolo[2,3-b]pyridin-4-yl)pyridin-3-yl)piperidin-4-ol] | 736 | 682 | 7960
CN1C[C@H]2CC[C@@H](C1)C2(O)c1ccc(-c2ccnc3[nH]cc(F)c23)cc1Cl (stereo partly drawn) [Compound 136, (1R,5S,8s)-8-(2-chloro-4-(3-fluoro-1H-pyrrolo[2,3-b]pyridin-4-yl)phenyl)-3-methyl-3-azabicyclo[3.2.1]octan-8-ol] | 69.8 | 118 | 1060
CN1CC(O)(c2ccc(-c3ccnc4[nH]cc(F)c34)cc2Cl)C1 [Compound 137, 3-(2-chloro-4-(3-fluoro-1H-pyrrolo[2,3-b]pyridin-4-yl)phenyl)-1-methylazetidin-3-ol] | 108 | 350 | 1180
OC1(c2c(F)cc(-c3ccnc4[nH]cc(F)c34)cc2F)CC2(CN(C3COC3)C2)C1 [Compound 138, 6-(2,6-difluoro-4-(3-fluoro-1H-pyrrolo[2,3-b]pyridin-4-yl)phenyl)-2-(oxetan-3-yl)-2-azaspiro[3.3]heptan-6-ol] | 66.4 | 117 | 2710
O=S1(=O)CCC(N2CC3(C2)CC(O)(c2c(F)cc(-c4ccnc5[nH]cc(F)c45)cc2F)C3)CC1 [Compound 140, 4-(6-(2,6-difluoro-4-(3-fluoro-1H-pyrrolo[2,3-b]pyridin-4-yl)phenyl)-6-hydroxy-2-azaspiro[3.3]heptan-2-yl)tetrahydro-2H-thiopyran 1,1-dioxide] | 56.8 | 120 | 1580
CC(C)(C)OC(=O)N1CCC(O)(c2ccc(-c3ccnc4[nH]ccc34)cc2)CC1 [Compound 141, tert-butyl 4-(4-(1H-pyrrolo[2,3-b]pyridin-4-yl)phenyl)-4-hydroxypiperidine-1-carboxylate] | 897 | 465 | > 10000
O=C([C@@H]1CCCN1)N1CCC(O)(c2ccc(-c3ccnc4[nH]cc(F)c34)cc2)CC1 [Compound 143, (S)-3-fluoro-4-(4-(4-hydroxy-1-prolylpiperidin-4-yl)phenyl)-1H-pyrrolo[2,3-b]pyridine] | 26 | 12 | 1460
O=C([C@@H]1CCCN1)N1CC(O)(c2ccc(-c3ccnc4[nH]cc(F)c34)cc2Cl)C1 [Compound 144, (S)-4-(3-chloro-4-(3-hydroxy-1-prolylazetidin-3-yl)phenyl)-3-fluoro-1H-pyrrolo[2,3-b]pyridine] | 50 | 26 | 2770
NCC(=O)N1CC2(C1)CC(O)(c1c(F)cc(-c3ccnc4[nH]cc(F)c34)cc1F)C2 [Compound 145, 2-amino-1-(6-(2,6-difluoro-4-(3-fluoro-1H-pyrrolo[2,3-b]pyridin-4-yl)phenyl)-6-hydroxy-2-azaspiro[3.3]heptan-2-yl)ethan-1-one] | 28.3 | 46 | 1870
c1cc(-c2ccc(C3CC4CCCC(C3)N4)cc2)c2cc[nH]c2n1 (stereo not drawn) [Compound 146, 4-(4-(9-azabicyclo[3.3.1]nonan-3-yl)phenyl)-1H-pyrrolo[2,3-b]pyridine] | 203 | 94.8 | 2460
NCC(=O)N1CCC(c2ccc(-c3ccnc4[nH]cc(F)c34)cc2Cl)CC1 [Compound 148, 2-amino-1-(4-(2-chloro-4-(3-fluoro-1H-pyrrolo[2,3-b]pyridin-4-yl)phenyl)piperidin-1-yl)ethan-1-one] | 7.7 | 17.8 | 1080
NCc1ccc(-c2cc(-c3ccnc4[nH]cc(F)c34)ccc2C2CCNCC2)cc1 [Compound 149, (5′-(3-fluoro-1H-pyrrolo[2,3-b]pyridin-4-yl)-2′-(piperidin-4-yl)-[1,1′-biphenyl]-4-yl)methanamine] | 4.3 | 1 | 67.3
NC(=O)c1ccc(-c2cc(-c3ccnc4[nH]ccc34)ccc2C2CCNCC2)cc1 [Compound 150, 2′-(piperidin-4-yl)-5′-(1H-pyrrolo[2,3-b]pyridin-4-yl)-[1,1′-biphenyl]-4-carboxamide] | 32.9 | 25.9 | 967
NCc1ccc(-c2cc(-c3ccnc4[nH]cc(Br)c34)ccc2C2CCNCC2)cc1 [Compound 151, (5′-(3-bromo-1H-pyrrolo[2,3-b]pyridin-4-yl)-2′-(piperidin-4-yl)-[1,1′-biphenyl]-4-yl)methanamine] | 16.6 | 15.1 | 170
COC(=O)c1c[nH]c2nccc(-c3ccc(C4CCNCC4)c(-c4ccc(CN)cc4)c3)c12 [Compound 152, methyl 4-(4′-(aminomethyl)-6-(piperidin-4-yl)-[1,1′-biphenyl]-3-yl)-1H-pyrrolo[2,3-b]pyridine-3-carboxylate] | 66.3 | 50.2 | 4410
c1ccc(-c2cc(-c3ccnc4[nH]ccc34)ccc2C2CCNCC2)cc1 [Compound 153, 4-(6-(piperidin-4-yl)-[1,1′-biphenyl]-3-yl)-1H-pyrrolo[2,3-b]pyridine] | 15.2 | 20.4 | 378
